Data on 29 compounds can be found in US6855710B2, “Substituted indolines with an inhibitory effect on various kinases and complexes of CDKs” (Boehringer Ingelheim Pharma KG, priority 1998, dated 2005).

In turn, `CN(C)CCNS(=O)(=O)c1ccc(N/C(=C2\C(=O)Nc3ccccc32)c2ccccc2)cc1` [Example 399, (Z)-3-{1-[4-(2-dimethylamino-ethylaminosulphonyl)-phenylamino]-1-phenyl-methylidene}-2-indolinone] had a melting point of 233 to 235 °C.

Regarding `CN(C)CCN(C)S(=O)(=O)c1ccc(N/C(=C2\C(=O)Nc3ccccc32)c2ccccc2)cc1` [Example 400, (Z)-3-{1-[4-(N-(2-dimethylaminoethyl)-N-methyl-aminosulphonyl)-phenylamino]-1-phenyl-methylidene}-2-indolinone], the melting point fell in the range of 200 to 203 °C.

Regarding `CN(C)CCNS(=O)(=O)c1ccc(N/C(=C2\C(=O)Nc3ccc([N+](=O)[O-])cc32)c2ccccc2)cc1` [Example 401, (Z)-3-{1-[4-(2-dimethylamino-ethylaminosulphonyl)-phenylamino]-1-phenyl-methylidene}-5-nitro-2-indolinone], the melting point lay within 260 to 261 °C.

Compound `CN(C)CCN(C)S(=O)(=O)c1ccc(N/C(=C2\C(=O)Nc3ccc([N+](=O)[O-])cc32)c2ccccc2)cc1` [Example 402, (Z)-3-{1-[4-(N-(2-dimethylaminoethyl)-N-methyl-aminosulphonyl)-phenylamino]-1-phenyl-methylidene}-5-nitro-2-indolinone] gave a melting point of 215 to 218 °C.

The compound `CN(C)CCCNS(=O)(=O)c1ccc(N/C(=C2\C(=O)Nc3ccc([N+](=O)[O-])cc32)c2ccccc2)cc1` [Example 403, (Z)-3-{1-[4-(3-dimethylamino-propylaminosulphonyl)-phenylamino]-1-phenyl-methylidene}-5-nitro-2-indolinone] had a melting point of 268 to 269 °C.

Consider `CN(C)CCCN(C)S(=O)(=O)c1ccc(N/C(=C2\C(=O)Nc3ccc([N+](=O)[O-])cc32)c2ccccc2)cc1` [Example 404, (Z)-3-{1-[4-(N-(3-dimethylaminopropyl)-N-methyl-aminosulphonyl)-phenylamino]-1-phenyl-methylidene}-5-nitro-2-indolinone], for which the melting point is 269 to 270 °C (dec.).

Consider `CN(C)S(=O)(=O)c1ccc(N/C(=C2\C(=O)Nc3ccccc32)c2ccccc2)cc1` [Example 405, (Z)-3-{1-[4-(dimethylaminosulphonyl)-phenylamino]-1-phenyl-methylidene}-2-indolinone], for which the melting point was 280 °C.

In turn, `CCOC(=O)CNS(=O)(=O)c1ccc(N/C(=C2\C(=O)Nc3ccccc32)c2ccccc2)cc1` [Example 406, (Z)-3-{1-[4-(ethoxycarbonylmethylaminosulphonyl)-phenylamino]-1-phenyl-methylidene}-2-indolinone] showed a melting point of 196 to 199 °C.

On to `O=C(O)CNS(=O)(=O)c1ccc(N/C(=C2\C(=O)Nc3ccccc32)c2ccccc2)cc1` [Example 407, (Z)-3-{1-[4-(carboxymethylaminosulphonyl)-phenylamino]-1-phenyl-methylidene}-2-indolinone], for which the melting point is 236 °C (dec.).

As to `CCOC(=O)CN(C)S(=O)(=O)c1ccc(N/C(=C2\C(=O)Nc3ccccc32)c2ccccc2)cc1` [Example 408, (Z)-3-{1-[4-(N-ethoxycarbonylmethyl-N-methyl-aminosulphonyl)-phenylamino]-1-phenyl-methylidene}-2-indolinone], the melting point lay in the range of 178 to 180 °C.

For the compound `CN(CC(=O)O)S(=O)(=O)c1ccc(N/C(=C2\C(=O)Nc3ccccc32)c2ccccc2)cc1` [Example 409, (Z)-3-{1-[4-(N-carboxymethyl-N-methyl-aminosulphonyl)-phenylamino]-1-phenyl-methylidene}-2-indolinone], the melting point is 237 °C (dec.).

`CCOC(=O)CNS(=O)(=O)c1ccc(N/C(=C2\C(=O)Nc3ccc([N+](=O)[O-])cc32)c2ccccc2)cc1` [Example 410, (Z)-3-{1-[4-(ethoxycarbonylmethylaminosulphonyl)-phenylamino]-1-phenyl-methylidene}-5-nitro-2-indolinone] yielded a melting point of 247 to 249 °C.

As for `O=C(O)CNS(=O)(=O)c1ccc(N/C(=C2\C(=O)Nc3ccc([N+](=O)[O-])cc32)c2ccccc2)cc1` [Example 411, (Z)-3-{1-[4-(carboxymethylaminosulphonyl)-phenylamino]-1-phenyl-methylidene}-5-nitro-2-indolinone], the melting point was 177 to 180 °C (dec.).

`CN(C)C(=O)CNS(=O)(=O)c1ccc(N/C(=C2\C(=O)Nc3ccc([N+](=O)[O-])cc32)c2ccccc2)cc1` [Example 412, (Z)-3-{1-[4-(dimethylaminocarbonylmethylaminosulphonyl)-phenylamino]-1-phenyl-methylidene}-5-nitro-2-indolinone] showed a melting point of 281 to 283 °C.

`CCOC(=O)CN(C)S(=O)(=O)c1ccc(N/C(=C2\C(=O)Nc3ccc([N+](=O)[O-])cc32)c2ccccc2)cc1` [Example 413, (Z)-3-{1-[4-(N-ethoxycarbonylmethyl-N-methyl-aminosulphonyl)-phenylamino]-1-phenyl-methylidene}-5-nitro-2-indolinone] yielded a melting point of 206 to 207 °C.

In turn, `CN(CC(=O)O)S(=O)(=O)c1ccc(N/C(=C2\C(=O)Nc3ccc([N+](=O)[O-])cc32)c2ccccc2)cc1` [Example 414, (Z)-3-{1-[4-(N-carboxymethyl-N-methyl-aminosulphonyl)-phenylamino]-1-phenyl-methylidene}-5-nitro-2-indolinone] came in with a melting point of 259 to 260 °C.

Take `CN(C)C(=O)CN(C)S(=O)(=O)c1ccc(N/C(=C2\C(=O)Nc3ccc([N+](=O)[O-])cc32)c2ccccc2)cc1` [Example 415, (Z)-3-{1-[4-(N-dimethylaminocarbonylmethyl-N-methyl-aminosulphonyl)-phenylamino]-1-phenyl-methylidene}-5-nitro-2-indolinone]: the melting point was in the range of 277 to 278 °C.

As to `CS(=O)(=O)N(CC(N)=O)c1cccc(N/C(=C2\C(=O)Nc3ccccc32)c2ccc(CN)cc2)c1` [Example 416, (Z)-3-{1-[3-(N-aminocarbonylmethyl-N-methylsulphonyl-amino)-phenylamino]-1-(4-aminomethyl-phenyl)-methylidene}-2-indolinone], the melting point came out at 167 °C.

As to `CC(=O)NCc1ccc(/C(Nc2cccc(N(CC(N)=O)S(C)(=O)=O)c2)=C2/C(=O)Nc3ccccc32)cc1` [Example 417, (Z)-3-{1-[3-(N-aminocarbonylmethyl-N-methylsulphonyl-amino)-phenylamino]-1-(4-acetylaminomethyl-phenyl)-methylidene}-2-indolinone], the melting point is 215 °C.

In turn, `CNC(=O)CN(c1cccc(N/C(=C2\C(=O)Nc3ccccc32)c2ccc(CN)cc2)c1)S(C)(=O)=O` [Example 418, (Z)-3-{1-[3-(N-methylaminocarbonylmethyl-N-methylsulphonyl-amino)-phenylamino]-1-(4-aminomethyl-phenyl)-methylidene}-2-indolinone] returned a melting point of 164 °C.

In turn, `CNC(=O)CN(c1cccc(N/C(=C2\C(=O)Nc3ccccc32)c2ccc(CNC(C)=O)cc2)c1)S(C)(=O)=O` [Example 419, (Z)-3-{1-[3-(N-methylaminocarbonylmethyl-N-methylsulphonyl-amino)-phenylamino]-1-(4-acetylaminomethyl-phenyl)-methylidene}-2-indolinone] had a melting point of 242 °C.

`CN(C)C(=O)CN(c1cccc(N/C(=C2\C(=O)Nc3ccccc32)c2ccc(CN)cc2)c1)S(C)(=O)=O` [Example 420, (Z)-3-{1-[3-(N-dimethylaminocarbonylmethyl-N-methylsulphonyl-amino)-phenylamino]-1-(4-aminomethyl-phenyl)-methylidene}-2-indolinone] came in with a melting point of 220 °C.

`CC(=O)NCc1ccc(/C(Nc2cccc(N(CC(=O)N(C)C)S(C)(=O)=O)c2)=C2/C(=O)Nc3ccccc32)cc1` [Example 421, (Z)-3-{1-[3-(N-dimethylaminocarbonylmethyl-N-methylsulphonyl-amino)-phenylamino]-1-(4-acetylaminomethyl-phenyl)-methylidene}-2-indolinone] returned a melting point of 194 °C.

On to `CN(C)CCN(c1cccc(N/C(=C2\C(=O)Nc3ccccc32)c2ccc(CN)cc2)c1)S(C)(=O)=O` [Example 422, (Z)-3-{1-[3-(N-(2-dimethylaminoethyl)-N-methylsulphonyl-amino)-phenylamino]-1-(4-aminomethyl-phenyl)-methylidene}-2-indolinone], for which the melting point worked out at 161 °C.

The compound `CC(=O)NCc1ccc(/C(Nc2cccc(N(CCN(C)C)S(C)(=O)=O)c2)=C2/C(=O)Nc3ccccc32)cc1` [Example 423, (Z)-3-{1-[3-(N-(2-dimethylaminoethyl)-N-methylsulphonyl-amino)-phenylamino]-1-(4-acetylaminomethyl-phenyl)-methylidene}-2-indolinone] had a melting point of 180 °C.

For the compound `CN(C)CCCN(c1cccc(N/C(=C2\C(=O)Nc3ccccc32)c2ccc(CN)cc2)c1)S(C)(=O)=O` [Example 424, (Z)-3-{1-[3-(N-(3-dimethylaminopropyl)-N-methylsulphonyl-amino)-phenylamino]-1-(4-aminomethyl-phenyl)-methylidene}-2-indolinone], the melting point turned out to be 197 °C.

Compound `CC(=O)NCc1ccc(/C(Nc2cccc(N(CCCN(C)C)S(C)(=O)=O)c2)=C2/C(=O)Nc3ccccc32)cc1` [Example 425, (Z)-3-{1-[3-(N-(3-dimethylaminopropyl)-N-methylsulphonyl-amino)-phenylamino]-1-(4-acetylaminomethyl-phenyl)-methylidene}-2-indolinone] gave a melting point of 208 °C.

In the case of `CN(C)CCN(c1ccc(N/C(=C2\C(=O)Nc3ccccc32)c2ccc(CN)cc2)cc1)S(C)(=O)=O` [Example 426, (Z)-3-{1-[4-(N-(2-dimethylaminoethyl)-N-methylsulphonyl-amino)-phenylamino]-1-(4-aminomethyl-phenyl)-methylidene}-2-indolinone], the melting point lay within 203 to 205 °C.

The compound `CC(=O)NCc1ccc(/C(Nc2ccc(N(CCN(C)C)S(C)(=O)=O)cc2)=C2/C(=O)Nc3ccccc32)cc1` [Example 427, (Z)-3-{1-[4-(N-(2-dimethylaminoethyl)-N-methylsulphonyl-amino)-phenylamino]-1-(4-acetylaminomethyl-phenyl)-methylidene}-2-indolinone] yielded a melting point of 225 to 227 °C.
